Laboratory results as given in EP0629402A1, “Pharmaceutical compositions containing ipsapirone” (BAYER AG, priority 1993, dated 1994).

Test: Pharmacokinetic studies: bioavailability after oral administration
Settings: in vivo, nach oraler Gabe, read-out: Bioverfügbarkeit
Source text: Als Ergebnis pharmakokinetischer Untersuchungen wurde festgestellt, daß Ipsapiron nach oraler Gabe eine Bioverfügbarkeit von nur 40 % aufweist. Ein erheblicher Wirkstoffanteil wird bereits präsystemisch metabolisiert und kann nicht bioverfügbar werden. Dies ist nachteilig, weil dieser Substanzverlust durch eine erhöhte Wirkstoffdosis ausgeglichen werden muß. Es resultieren große, für den Patienten schlecht schluckbare Arzneiformen und eine erhebliche Belastung des Patienten mit pharmakologisch inaktiven Ipsapiron-Metaboliten. Ferner nehmen mit sinkender Bioverfugbarkeit die interindividuellen Schwankungen im Plasmakonzentrationsverlauf zu und die Therapie wird unkalkulierbar.

- bioavailability: 40%
SMILES: O=C1c2ccccc2S(=O)(=O)N1CCCCN1CCN(c2ncccn2)CC1 [Ipsapiron]
